In US20120083476A1, “HETEROARYL-SUBSTITUTED SPIROCYCLIC DIAMINE UREA MODULATORS OF FATTY ACID AMIDE HYDROLASE” (Janssen Pharmaceutica NV, priority 2009, published 2012):
Where a name gives a salt, the structure may show the parent alone. Read-outs that look alike come from different tables or passages of the source.

Experiments:
Rat FAAH = target: T1, Rat FAAH (Rattus norvegicus, UniProt P97612); experiment: Assay Method 2: rat FAAH assay (3H-anandamide hydrolysis in cell homogenate); format: biochemical; conditions: read-out: Assay 2 IC50
T1 construct: expressed in transfected cells; host or cells: SK-N-MC cells stably transfected with rat FAAH cDNA (G418 selection)
T1 sequence (P97612 1-579): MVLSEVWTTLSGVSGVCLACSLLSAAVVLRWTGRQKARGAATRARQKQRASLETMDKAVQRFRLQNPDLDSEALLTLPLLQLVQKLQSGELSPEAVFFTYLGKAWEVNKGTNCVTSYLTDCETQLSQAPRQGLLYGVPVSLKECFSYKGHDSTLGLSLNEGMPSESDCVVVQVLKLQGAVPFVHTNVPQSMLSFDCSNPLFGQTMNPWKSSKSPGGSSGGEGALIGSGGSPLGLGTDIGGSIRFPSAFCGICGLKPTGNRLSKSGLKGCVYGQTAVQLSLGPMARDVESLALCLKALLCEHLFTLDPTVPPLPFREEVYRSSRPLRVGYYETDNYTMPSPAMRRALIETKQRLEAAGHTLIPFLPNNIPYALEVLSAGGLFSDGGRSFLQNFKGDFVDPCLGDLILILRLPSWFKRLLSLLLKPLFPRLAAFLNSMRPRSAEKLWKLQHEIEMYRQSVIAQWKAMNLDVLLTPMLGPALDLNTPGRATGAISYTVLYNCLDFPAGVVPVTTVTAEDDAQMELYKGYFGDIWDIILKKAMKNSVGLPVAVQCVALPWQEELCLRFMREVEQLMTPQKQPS
Outline: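 Homogenates of T84 cells or SK-N-MC cells stably transfected with rat FAAH, in pH 9 Tris/EDTA/glycerol/Triton buffer, incubated 1 h at room temperature with 3H-anandamide. Released labeled ethanolamine separated from substrate on activated charcoal and counted by scintillation; values averaged over runs.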

FAAH = target: T2, FAAH (Homo sapiens, UniProt O00519); experiment: Assay Method 1: human FAAH assay (3H-anandamide hydrolysis in cell homogenate); format: biochemical; set-up: expressed in transfected cells; host or cells: SK-N-MC cells stably transfected with human FAAH cDNA (G418 selection); alternatively T84 cell pellets
T2 sequence (O00519 1-579): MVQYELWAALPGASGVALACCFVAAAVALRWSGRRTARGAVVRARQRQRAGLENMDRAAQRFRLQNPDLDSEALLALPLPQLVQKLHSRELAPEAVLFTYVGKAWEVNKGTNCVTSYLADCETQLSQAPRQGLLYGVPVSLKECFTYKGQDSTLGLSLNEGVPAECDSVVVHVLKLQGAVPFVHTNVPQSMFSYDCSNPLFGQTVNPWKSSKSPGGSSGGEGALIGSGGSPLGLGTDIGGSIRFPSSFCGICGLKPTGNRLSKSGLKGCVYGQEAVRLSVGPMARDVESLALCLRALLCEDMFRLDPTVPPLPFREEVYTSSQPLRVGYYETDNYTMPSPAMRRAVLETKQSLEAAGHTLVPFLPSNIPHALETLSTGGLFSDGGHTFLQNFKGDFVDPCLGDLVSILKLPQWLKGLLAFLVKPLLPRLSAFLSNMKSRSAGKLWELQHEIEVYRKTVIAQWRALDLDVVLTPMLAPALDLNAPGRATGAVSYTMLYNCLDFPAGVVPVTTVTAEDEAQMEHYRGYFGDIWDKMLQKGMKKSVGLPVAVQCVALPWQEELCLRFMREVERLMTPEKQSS
Outline: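 Homogenates of T84 cells or SK-N-MC cells stably transfected with human FAAH, in pH 9 Tris/EDTA buffer with 0.02% Triton X-100. Incubated 1 h at rt with compound and 80 nM (final) [3H-ethanolamine]-anandamide. Released 3H-ethanolamine separated on charcoal filters and counted by scintillation.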

Question: How did the IC50 (Rat FAAH) turn out when `O=C(Nc1cccc2cn[nH]c12)N1CC2(CCN(Cc3cccc(Oc4ccc(Cl)cc4)c3)CC2)C1` [Example 68, 7-[3-(4-Chloro-phenoxy)-benzyl]-2,7-diaza-spiro[3.5]nonane-2-carboxylic acid (1H-indazol-7-yl)-amide, trifluoroacetic acid salt] was run?
Answer: > 10000 nM

Question: And the IC50 (FAAH; read-out: Assay 1 IC50)?
Answer: > 10000 nM

Question: With `O=C(Nc1cnccc1Cl)N1CC2(CN(Cc3cccc(Oc4ccc(Cl)cc4)c3)C2)C1` [Example 36, 6-(3-(4-chlorophenoxy)benzyl)-N-(4-chloropyridin-3-yl)-2,6-diazaspiro[3.3]heptane-2-carboxamide] as the compound, how does the IC50 (Rat FAAH) read?
Answer: 30 nM

Question: What about the IC50 (FAAH; read-out: Assay 1 IC50) of the same compound?
Answer: 10 nM

Question: `O=C(Nc1cccnc1)N1CC2(CCN(Cc3ccccc3O)CC2)C1` [Example 107, 7-(2-hydroxybenzyl)-N-(pyridin-3-yl)-2,7-diazaspiro[3.5]nonane-2-carboxamide] was tested. Which IC50 (Rat FAAH) did it give?
Answer: > 10000 nM

Question: What about the IC50 (FAAH; read-out: Assay 1 IC50) of the same compound?
Answer: > 10000 nM

Question: How did the IC50 (Rat FAAH) turn out when `O=C(Nc1cnc2[nH]ccc2c1)N1CCC2(CCN(Cc3cccc(Oc4ccc(Cl)cc4)c3)C2)C1` (stereo not shown) [Example 12, 7-[3-(4-Chloro-phenoxy)-benzyl]-2,7-diaza-spiro[4.4]nonane-2-carboxylic acid (1H-pyrrolo[2,3-b]pyridin-5-yl)-amide] was run?
Answer: 100 nM

Question: What about the IC50 (FAAH; read-out: Assay 1 IC50) of the same compound?
Answer: 700 nM

Question: Which IC50 (Rat FAAH) does the source give for `O=C(Nc1ccnc2[nH]ccc12)N1CC2(CCN(Cc3cccc(Oc4ccc(Cl)cc4)c3)CC2)C1` [Example 74, 7-[3-(4-Chloro-phenoxy)-benzyl]-2,7-diaza-spiro[3.5]nonane-2-carboxylic acid (1H-pyrrolo[2,3-b]pyridin-4-yl)-amide, trifluoroacetic acid salt] here?
Answer: 2000 nM

Question: And the IC50 (FAAH; read-out: Assay 1 IC50)?
Answer: > 10000 nM

Question: How did the IC50 (Rat FAAH) turn out when `O=C(Nc1noc2ccccc12)N1CCC2(CC1)CN(Cc1cccc(Oc3ccc(Cl)cc3)c1)C2` [Example 5, 2-[3-(4-Chloro-phenoxy)-benzyl]-2,7-diaza-spiro[3.5]nonane-7-carboxylic acid benzo[d]isoxazol-3-ylamide] was run?
Answer: 10 nM

Question: What about the IC50 (FAAH; read-out: Assay 1 IC50) of the same compound?
Answer: 130 nM

Question: For `O=C(Nc1cccnc1)N1CC2(CCN(Cc3ccccc3)CC2)C1` [Example 97, 7-Benzyl-2,7-diaza-spiro[3.5]nonane-2-carboxylic acid pyridin-3-ylamide], which IC50 (Rat FAAH) is on record?
Answer: > 10000 nM

Question: What about the IC50 (FAAH; read-out: Assay 1 IC50) of the same compound?
Answer: > 10000 nM

Question: Which results are given for `N#Cc1cccc(Oc2cccc(CN3CCC4(CC3)CN(C(=O)Nc3cccnc3)C4)c2)c1` [Example 116, 7-(3-(3-cyanophenoxy)benzyl)-N-(pyridin-3-yl)-2,7-diazaspiro[3.5]nonane-2-carboxamide]?
Answer: IC50 (Rat FAAH): 7070 nM; IC50 (FAAH; read-out: Assay 1 IC50): 70 nM

Question: For `O=C(Nc1noc2ccccc12)N1CC2(CCN(Cc3cccc(Oc4ccc(Cl)cc4)c3)CC2)C1` [Example 38, 7-[3-(4-Chloro-phenoxy)-benzyl]-2,7-diaza-spiro[3.5]nonane-2-carboxylic acid benzo[d]isoxazol-3-ylamide], which IC50 (Rat FAAH) is on record?
Answer: 20 nM

Question: What about the IC50 (FAAH; read-out: Assay 1 IC50) of the same compound?
Answer: 820 nM

Question: With `COc1ccc(NC(=O)N2CC3(CCN(Cc4cccc(Oc5ccc(Cl)cc5)c4)CC3)C2)cn1` [Example 49, 7-[3-(4-Chloro-phenoxy)-benzyl]-2,7-diaza-spiro[3.5]nonane-2-carboxylic acid (6-methoxy-pyridin-3-yl)-amide, trifluoroacetic acid salt] as the compound, how does the IC50 (Rat FAAH) read?
Answer: 8000 nM

Question: And the IC50 (FAAH; read-out: Assay 1 IC50)?
Answer: 1800 nM

Question: Which results are given for `O=C(Nc1cccnc1)N1CC2(CCN(Cc3cccc(Oc4ccc(OC(F)(F)F)cc4)c3)CC2)C1` [Example 125, 7-[3-(4-Trifluoromethoxy-phenoxy)-benzyl]-2,7-diaza-spiro[3.5]nonane-2-carboxylic acid pyridin-3-ylamide]?
Answer: IC50 (Rat FAAH): 3000 nM; IC50 (FAAH; read-out: Assay 1 IC50): 2600 nM

Question: How did the IC50 (Rat FAAH) turn out when `O=C(Nc1nnn[nH]1)N1CC2(CCN(Cc3cccc(Oc4ccc(Cl)cc4)c3)CC2)C1` [Example 64, 7-[3-(4-Chloro-phenoxy)-benzyl]-2,7-diaza-spiro[3.5]nonane-2-carboxylic acid (2H-tetrazol-5-yl)-amide, trifluoroacetic acid salt] was run?
Answer: 60 nM

Question: And the IC50 (FAAH)?
Answer: 3160 nM

Question: Which results are given for `O=C(Nc1ccc(-n2nccn2)cc1)N1CC2(CCN(Cc3cccc(Oc4ccc(Cl)cc4)c3)CC2)C1` [Example 41, 7-[3-(4-Chloro-phenoxy)-benzyl]-2,7-diaza-spiro[3.5]nonane-2-carboxylic acid (4-[1,2,3]triazol-2-yl-phenyl)-amide, trifluoroacetic acid salt]?
Answer: IC50 (Rat FAAH): 80 nM; IC50 (FAAH; read-out: Assay 1 IC50): 20 nM

Question: Which IC50 (Rat FAAH) does the source give for `O=C(Nc1cnccc1Cl)N1CCCC2(CN(Cc3cccc(Oc4ccc(Cl)cc4)c3)C2)C1` [Example 30, 2-(3-(4-chlorophenoxy)benzyl)-N-(4-chloropyridin-3-yl)-2,6-diazaspiro[3.5]nonane-6-carboxamide] here?
Answer: 120 nM

Question: And the IC50 (FAAH; read-out: Assay 1 IC50)?
Answer: 1600 nM

Question: Which IC50 (Rat FAAH) does the source give for `O=C(Nc1cccnc1)N1CC2(CCN(Cc3cccc(Oc4cccc(Br)c4)c3)CC2)C1` [Example 122, 7-[3-(3-Bromo-phenoxy)-benzyl]-2,7-diaza-spiro[3.5]nonane-2-carboxylic acid pyridin-3-ylamide] here?
Answer: 1000 nM

Question: What about the IC50 (FAAH; read-out: Assay 1 IC50) of the same compound?
Answer: 50 nM

Question: Which results are given for `O=C(Nc1cnc2[nH]ccc2c1)N1CCC2(CCCN2Cc2cccc(Oc3ccc(Cl)cc3)c2)C1` (stereo not shown) [Example 9, 1-[3-(4-Chloro-phenoxy)-benzyl]-1,7-diaza-spiro[4.4]nonane-7-carboxylic acid (1H-pyrrolo[2,3-b]pyridin-5-yl)-amide]?
Answer: IC50 (Rat FAAH): 320 nM; IC50 (FAAH; read-out: Assay 1 IC50): 1000 nM

Question: What does the source list for `Cc1nn(C)c2ncc(NC(=O)N3CC4(CCN(Cc5cccc(Oc6ccc(Cl)cc6)c5)CC4)C3)cc12` [Example 75, 7-(3-(4-chlorophenoxy)benzyl)-N-(1,3-dimethyl-1H-pyrazolo[3,4-b]pyridin-5-yl)-2,7-diazaspiro[3.5]nonane-2-carboxamide, trifluoroacetic acid salt]?
Answer: IC50 (Rat FAAH): 400 nM; IC50 (FAAH; read-out: Assay 1 IC50): 2500 nM

Question: Which results are given for `O=C(Nc1cccnc1)N1CC2(CCN(Cc3cccc(Oc4cccc(Cl)c4)c3)CC2)C1` [Example 112, 7-(3-(3-chlorophenoxy)benzyl)-N-(pyridin-3-yl)-2,7-diazaspiro[3.5]nonane-2-carboxamide]?
Answer: IC50 (Rat FAAH): 840 nM; IC50 (FAAH; read-out: Assay 1 IC50): 60 nM

Question: How did the IC50 (Rat FAAH) turn out when `O=C(Nc1cncc(F)c1)N1CC2(CCN(Cc3cccc(Oc4ccc(Cl)cc4)c3)CC2)C1` [Example 73, 7-[3-(4-Chloro-phenoxy)-benzyl]-2,7-diaza-spiro[3.5]nonane-2-carboxylic acid (5-fluoro-pyridin-3-yl)-amide, trifluoroacetic acid salt] was run?
Answer: 450 nM

Question: And the IC50 (FAAH; read-out: Assay 1 IC50)?
Answer: 80 nM

Question: Which IC50 (Rat FAAH) does the source give for `Cc1ccncc1NC(=O)N1CC2(CCN(Cc3cccc(Oc4ccc(Cl)cc4)c3)CC2)C1` [Example 85, 7-(3-(4-chlorophenoxy)benzyl)-N-(4-methylpyridin-3-yl)-2,7-diazaspiro[3.5]nonane-2-carboxamide] here?
Answer: 40 nM

Question: What about the IC50 (FAAH) of the same compound?
Answer: 80 nM

Question: Which results are given for `Cc1nc2ccc(NC(=O)N3CC4(CCN(Cc5cccc(Oc6ccc(Cl)cc6)c5)CC4)C3)cc2s1` [Example 77, 7-(3-(4-chlorophenoxy)benzyl)-N-(2-methylbenzo[d]thiazol-6-yl)-2,7-diazaspiro[3.5]nonane-2-carboxamide, trifluoroacetic acid salt]?
Answer: IC50 (Rat FAAH): > 10000 nM; IC50 (FAAH; read-out: Assay 1 IC50): > 10000 nM

Question: What does the source list for `O=C(Nc1ccc(-n2nccn2)nc1)N1CC2(CCN(Cc3cccc(Oc4ccc(Cl)cc4)c3)CC2)C1` [Example 39, 7-[3-(4-Chloro-phenoxy)-benzyl]-2,7-diaza-spiro[3.5]nonane-2-carboxylic acid (6-[1,2,3]triazol-2-yl-pyridin-3-yl)-amide]?
Answer: IC50 (Rat FAAH): 20 nM; IC50 (FAAH; read-out: Assay 1 IC50): 20 nM

Question: How did the IC50 (Rat FAAH) turn out when `O=C(Nc1cccnc1)N1CC2(CCN(Cc3cccc(Oc4cccc(OC(F)(F)F)c4)c3)CC2)C1` [Example 115, N-(pyridin-3-yl)-7-(3-(3-(trifluoromethoxy)phenoxy)benzyl)-2,7-diazaspiro[3.5]nonane-2-carboxamide] was run?
Answer: 8000 nM

Question: And the IC50 (FAAH; read-out: Assay 1 IC50)?
Answer: 750 nM
